Data taken from patent US5849691A, “Peptidomimetic inhibitors of cathepsin D and plasmepsins I and II” (The United States of America as represented by the …, priority 1996, dated 1998).
Like-named read-outs stand apart in the source and are kept apart here. Numbered stars: 1 amine (or outer) side, 2 acyl side, 3 side chain; on linkers, the order of the positions; unused ones are H or OH. Bridge positions count the residues as written; N and C are the ends. Square brackets hold non-standard residues; d marks the D form. Peptide text beside a SMILES is read from it. * marks the point of attachment. Ahppa(3S,4S) = O=C(C[C@H](O)[C@H](Cc1ccccc1)N[*:1])[*:2]; Butanoyl(3,3-Me2) = CC(C)(C)CC(=O)*; Isopropoxycarbonyl = CC(C)OC(=O)*; CH2CH2 = C(C[*:2])[*:1]

Experiments:
[1] = biological target: cathepsin D (Homo sapiens, UniProt P07339); experiment: cathepsin D inhibition assay with fluorogenic substrate (tight-binding kinetics); type: biochemical
Procedure: (§1) Typically, 485 μl of 50 mM Gly-HC1 buffer, pH 3.5 (in the case of cathepsin D), or 100 mM sodium acetate buffer, pH 5.0 (in the case of plasmepsin 2), was mixed with 5 μl of DMSO and 5 μl of titrated protease (final concentration 0.2-10 nM) and incubated 3 min at 37° C. The reaction was initiated by the addition of 5 μl of substrate stock solution in DMSO. Increase in fluorescence intensity at the emission maximum of 487 nm (excitation wavelength was 349 nm) was monitored as a function of time using an Aminco Bowman-2 luminescence spectrometer (SLM Instruments, Inc.).
(§2) The initial rate of hydrolysis was calculated by a second degree polynomial fit using SLM AB2 2.0 operating software. Kinetic parameters were determined by nonlinear regression fitting of initial rate versus substrate concentration data to the Michaelis-Menten equation using the program Enzfitter version 1.05 (Leatherbarrow, R. J. 1987. Enzfitter, a program for non-linear regression analysis. Elsevier Scientific, New York).
For inhibition studies inhibitors were prepared as stock solutions at different concentrations in DMSO. In a typical experiment 485 μl of the appropriate buffer was mixed with 5 μl of inhibitor stock solution and 5 μ of titrated protease (final concentration 0.2-10 nM) and preincubated 3 min at 37° C. The reaction was initiated by the addition of 5 μl of substrate stock solution in DMSO. For data analysis the mathematical model for tight-binding inhibitors (Williams, J. W., and Morrison, J. F. Methods Enzymol. 63:437 (1979)) was used. The data were fitted by nonlinear regression analysis to the equation
V=V0 /2Et ({[K1 (1+S/Km)+It -Et ]^2
+4Ki (1+S/Km)Et }^1/2 -[Ki (1+S/Km)+It

[2] = biological target: plasmepsin II (PMII) (Plasmodium falciparum, UniProt P46925); experiment: biochemical
Procedure: as §1, §2
For inhibition studies inhibitors were prepared as stock solutions at different concentrations in DMSO. In a typical experiment 485 μl of the appropriate buffer was mixed with 5 μl of inhibitor stock solution and 5 μ of titrated protease (final concentration 0.2-10 nM) and preincubated 3 min at 37° C. The reaction was initiated by the addition of 5 μl of substrate stock solution in DMSO. […]

[3] = biological target: plasmepsin I (PMI) (Plasmodium falciparum, UniProt P39898); experiment: biochemical
Chain of plasmepsin I (PMI) (P39898 124-452): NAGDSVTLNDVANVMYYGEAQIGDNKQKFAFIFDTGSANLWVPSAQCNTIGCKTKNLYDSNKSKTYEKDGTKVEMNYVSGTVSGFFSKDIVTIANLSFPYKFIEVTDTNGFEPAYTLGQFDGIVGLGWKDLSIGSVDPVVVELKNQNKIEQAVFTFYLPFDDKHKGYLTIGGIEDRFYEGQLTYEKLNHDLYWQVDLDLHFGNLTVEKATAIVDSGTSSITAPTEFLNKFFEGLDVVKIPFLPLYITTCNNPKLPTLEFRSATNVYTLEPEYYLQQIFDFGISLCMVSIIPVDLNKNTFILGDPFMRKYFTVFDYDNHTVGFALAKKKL

Chain of cathepsin D (P07339 65-412): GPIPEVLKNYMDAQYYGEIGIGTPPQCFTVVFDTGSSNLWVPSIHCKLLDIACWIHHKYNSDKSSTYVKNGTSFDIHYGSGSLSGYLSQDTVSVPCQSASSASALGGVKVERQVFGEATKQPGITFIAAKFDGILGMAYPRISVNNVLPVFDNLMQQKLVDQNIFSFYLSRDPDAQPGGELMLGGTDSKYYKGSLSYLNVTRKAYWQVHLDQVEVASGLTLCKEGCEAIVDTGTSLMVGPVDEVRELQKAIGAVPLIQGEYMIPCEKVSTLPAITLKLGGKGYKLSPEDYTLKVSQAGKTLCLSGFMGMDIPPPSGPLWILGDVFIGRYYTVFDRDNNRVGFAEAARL
Chain of plasmepsin II (PMII) (P46925 125-453): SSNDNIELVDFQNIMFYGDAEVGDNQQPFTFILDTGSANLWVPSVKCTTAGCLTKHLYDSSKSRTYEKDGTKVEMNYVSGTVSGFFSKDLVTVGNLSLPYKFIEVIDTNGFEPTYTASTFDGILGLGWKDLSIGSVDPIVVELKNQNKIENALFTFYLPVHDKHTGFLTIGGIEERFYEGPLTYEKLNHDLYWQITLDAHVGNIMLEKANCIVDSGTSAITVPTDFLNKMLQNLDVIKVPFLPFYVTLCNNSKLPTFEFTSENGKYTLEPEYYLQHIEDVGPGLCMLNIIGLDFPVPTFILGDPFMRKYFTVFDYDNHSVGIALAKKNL

| SMILES | Ki [1] | further results |
| --- | --- | --- |
| CC(C)[C@@H]1NC(=O)C[C@H](O)[C@H](Cc2ccccc2)NC(=O)[C@@H](NC(=O)[C@@H](NC(=O)CC(C)(C)C)C(C)C)CSCCCSC[C@@H](C(=O)NCC(N)=O)NC1=O | 1.5 nM | – |
| CC(C)C[C@H](NC(=O)[C@H](C)NC(=O)C[C@H](O)[C@H](Cc1ccccc1)NC(=O)[C@@H](NC(=O)[C@@H](NC(=O)OC(C)C)C(C)C)C(C)C)C(N)=O (Isopropoxycarbonyl-VV[Ahppa(3S,4S)]AL-NH2) | 0.24 nM | – |
| CCCCCNC(=O)[C@@H](NC(=O)C[C@H](O)[C@H](Cc1ccccc1)NC(=O)CCCC)C(C)C | 400 nM | – |
| CC(C)C[C@H](NC(=O)[C@@H](NC(=O)C[C@H](O)[C@@H]1CCCCNC(=O)CC[C@H](NC(=O)CC(C)(C)C)C(=O)N[C@@H](C(C)C)C(=O)N1)C(C)C)C(=O)NCC(N)=O [drawing 40] | – | Ki [2]: 0.2 nM; Ki [3]: 22 nM |
| CC(C)C[C@H](NC(=O)[C@@H](NC(=O)C[C@H](O)[C@@H]1CCCCNC(=O)C[C@H](NC(=O)CC(C)(C)C)C(=O)N[C@@H](C(C)C)C(=O)N1)C(C)C)C(=O)NCC(N)=O | 2.5 nM | – |
| CC(C)C[C@H](NC(=O)[C@H](C)NC(=O)C[C@H](O)[C@H](Cc1ccccc1)NC(=O)[C@@H](NC(=O)CN(C)C)C(C)C)C(N)=O | – | IC50 [1]: 1000 nM |
| CC(C)C[C@H](NC(=O)[C@H](C)NC(=O)C[C@H](O)[C@H](Cc1ccccc1)NC(=O)[C@@H](NC(=O)Cc1ccccn1)C(C)C)C(N)=O | 20 nM | – |
| CC(C)C[C@H](NC(=O)[C@@H](NC(=O)C[C@H](O)[C@H](Cc1ccccc1)NC(=O)[C@H](CC(=O)O)NC(=O)[C@@H](NC(=O)CC(C)(C)C)C(C)C)C(C)C)C(=O)NCC(N)=O [(10), Tha--Val--Asp--Pst--Val--Leu--Gly--NH2] ({Butanoyl(3,3-Me2)}-VD[Ahppa(3S,4S)]VLG-NH2) | 2.1 nM | – |
| CC(C)[C@@H]1NC(=O)C[C@H](O)[C@H](Cc2ccccc2)NC(=O)[C@@H](NC(=O)[C@@H](NC(=O)CC(C)(C)C)C(C)C)CCC(=O)NCCCC[C@@H](C(=O)NCC(N)=O)NC1=O ({Butanoyl(3,3-Me2)}-VE[Ahppa(3S,4S)]VKG-NH2; lactam 2-5) | 2.3 nM | – |
| CC(C)[C@@H]1NC(=O)C[C@H](O)[C@H](Cc2ccccc2)NC(=O)[C@@H](NC(=O)[C@@H](NC(=O)CC(C)(C)C)C(C)C)CCCCNC(=O)CC[C@@H](C(=O)NCC(N)=O)NC1=O ({Butanoyl(3,3-Me2)}-VK[Ahppa(3S,4S)]VEG-NH2; lactam 2-5) | 1.4 nM | – |
| CC(C)[C@@H]1NC(=O)C[C@H](O)[C@H](Cc2ccccc2)NC(=O)[C@@H](NC(=O)[C@@H](NC(=O)CC(C)(C)C)C(C)C)CSSC[C@@H](C(=O)NCC(N)=O)NC1=O ({Butanoyl(3,3-Me2)}-VC[Ahppa(3S,4S)]VCG-NH2; disulfide 2-5) | 150 nM | – |
| CC(C)C[C@H](NC(=O)[C@H](C)NC(=O)C[C@H](O)[C@H](Cc1ccccc1)NC(=O)[C@@H](NC(=O)c1ccccn1)C(C)C)C(N)=O [drawing 42] | – | Ki [2]: 0.9 nM; Ki [3]: 16 nM |
| CC(C)C[C@H](NC(=O)[C@H](C)NC(=O)C[C@H](O)[C@H](Cc1ccccc1)NC(=O)[C@@H](NC(=O)c1ccccn1)C(C)C)C(N)=O [drawing 15] | – | Ki ([1]; target named only in b168/b175 (cathepsin D), elsewhere implied, read-out: Ki): 21 nM |
| CC(C)[C@@H]1NC(=O)C[C@H](O)[C@H](Cc2ccccc2)NC(=O)[C@@H](NC(=O)[C@@H](NC(=O)CC(C)(C)C)C(C)C)CSCCSC[C@@H](C(=O)NCC(N)=O)NC1=O ({Butanoyl(3,3-Me2)}-VC[Ahppa(3S,4S)]VCG-NH2; linker 2-5 via CH2CH2) | 1.9 nM | – |
| CC(C)[C@@H]1NC(=O)C[C@H](O)[C@H](Cc2ccccc2)NC(=O)[C@@H](NC(=O)[C@@H](NC(=O)CC(C)(C)C)C(C)C)CSCCCCSC[C@@H](C(=O)NCC(N)=O)NC1=O | 0.1 nM | – |
| CC(C)C[C@H](NC(=O)[C@@H](NC(=O)C[C@H](O)[C@@H]1CCCCNC(=O)CC[C@H](NC(=O)CC(C)(C)C)C(=O)N[C@@H](C(C)C)C(=O)N1)C(C)C)C(=O)NCC(N)=O [drawing 29] | 0.26 nM | – |
| CC(C)C[C@H](NC(=O)[C@H](C)NC(=O)C[C@H](O)[C@H](Cc1ccccc1)NC(=O)[C@@H](NC(=O)OC(C)C)C(C)C)C(N)=O | – | IC50 [1]: 20 nM |
